Laboratory results published in US9458199B2, “Antigen surrogates in autoimmune disease” (OPKO Pharmaceuticals, LLC, priority 2011, dated 2016).
Bridge positions count the residues as written; N and C are the ends. Square brackets hold non-standard residues; d marks the D form. Peptide text beside a SMILES is read from it. ξ: configuration not given here. Gly(N-CH2CH2C6H4-4Cl) = O=C(O)CNCCc1ccc(Cl)cc1; Gly(N-piperonyl) = O=C(O)CNCc1ccc2c(c1)OCO2; Nrpe = C[C@@H](NCC(=O)O)c1ccccc1; NFurfurylGly = O=C(O)CNCc1ccco1; ξE = NC(CCC(=O)O)C(=O)O; Nleu = CC(C)CNCC(=O)O; Nlys = NCCCCNCC(=O)O; Nme = COCCNCC(=O)O

Legend:
[1] = test system: Myelin Oligodendrocyte Glycoprotein (MOG) 35-55 specific TCR transgenic T cells; assay: Antigen-stimulated T cell proliferation, CFSE dilution by flow cytometry; format: cell-based
[2] = test system: CD4+ T cells from MBP Ac1-11 TCR transgenic mice; assay: Binding of quantum dot-labeled T cells to peptoid resynthesized on beads; settings: red quantum dot-labeled
Description: To determine whether AG12A was binding to the autoreactive TCR, the inventors took advantage of the existence of transgenic mice, in which the vast majority of CD4+ T cells express the MBP Ac1-11 specific TCR (Vα2.3/Vβ8.2 TCR) (Goveman et al., 1993). CD4+ T cells were isolated from these mice and tested for binding to AG12A. This was done in several ways. First, AG12A was resynthesized on beads, as was a control peptoid not selected as a T cell ligand. The beads were then incubated with red quantum dot-labeled T cells.

B cells = assay: B cell proliferation; format: cell-based
wild-type CD4+ T cells = assay: Binding of quantum dot-labeled T cells to peptoid resynthesized on beads; parameters: species or system mice
[3] = test system: MBP Ac1-11 specific T cells (Vα2.3/Vβ8.2 TCR transgenic); assay: DOPA chemical cross-linking, streptavidin staining, mean fluorescence intensity; parameters: species or system mice; settings: biotin-labeled DOPA-peptoid, periodate cross-linking, CD4+/streptavidin+ cells; read-out: Kr, of binding to MBP Ac1-11 specific T cells
[4] = target: pemphigus vulgaris autoantibody (Dsg3); assay: Solution binding to pemphigus vulgaris autoantibody; settings: pemphigus vulgaris autoantibody to the Dsg autoantigen; read-out: binding affinity in solution

Row | Compound | inhibition of antigen-stimulated proliferation of MOG 35-55 specific TCR transgenic T cells [1] | binding of T cells to peptoid displayed on beads [2] | inhibition of proliferation of B cells (B cells) | binding of T cells to peptoid displayed on beads (wild-type CD4+ T cells) | Kd [3] [µM] | Kd [4] [µM]
1 | CC(C)CNCC(=O)N(CCCCN)CC(=O)N(CC(=O)N(CC(=O)N(CCCCN)CC(=O)N(CC(=O)N(CCCCN)CC(=O)N(CCCCN)CC(N)=O)CC(C)C)[C@H](C)c1ccccc1)Cc1ccco1 [AG12A] (H-[Nleu][Nlys][NFurfurylGly][Nrpe][Nlys][Nleu][Nlys][Nlys]-NH2; C-terminus assumed) | did not inhibit | bound to AG12A displayed on beads | nor did AG12A inhibit proliferation of B cells | did not | ~40 | –
2 | COCCN1CC(=O)N(CCCCN)CC(=O)N(Cc2ccc3c(c2)OCO3)CC(=O)N(CCc2ccc(Cl)cc2)CC(=O)NC(C(N)=O)CCC1=O (stereo not drawn) [compound 1a] ([Nme][Nlys][Gly(N-piperonyl)][Gly(N-CH2CH2C6H4-4Cl)][ξE]-NH2; lactam N-5) | – | – | – | – | – | ~10
